Tests used:
[1] = system: human breast cancer cell line SK-BR-3; assay: Cell growth inhibition assay (MTT), SK-BR-3; format: cell-based; conditions: SK-BR-3 cells, 72 hours, read-out: GI50 value (50% growth inhibitory concentration)
Procedure: (§1) A cell growth inhibition assay was performed using two types of cells (human breast cancer cell line SK-BR-3 and human lung cancer cell line NCI-H460).
(§2) Cells of each type were suspended in a medium and seeded into a 96-well multi-well plate at 2000 cells/150 μL/well in the case of SK-BR-3 and at 500 cells/150 μL/well in the case of NCI-H460. Compound (1) was dissolved in DMSO, and this was diluted with medium to prepare a sample solution (DMSO concentration: 0.5% or less). On the day following the seeding, 50 μL of DMSO-containing medium to which the test compound was not added (hereinafter called DMSO diluted solution; DMSO concentration: 0.5% or less) or 50 μL of the sample solution was further added to the cells. An MTT assay was performed immediately after and 72 hours after adding the sample solution or the DMSO diluted solution to the cells. The MTT assay was performed as follows.
(§3) 5 mg/mL of an MTT (3-(4,5-dimethylthiazol-2-yl)-2,5-diphenyltetrazolium bromide) solution was added at 20 μL per well. Thereafter, the plate was incubated at 37° C. in 5% CO2 for four hours. The plate was centrifuged at 1200 rpm for five minutes, and then the culture supernatant was removed by suction using a dispenser. DMSO was added at 150 μL per well, and the generated formazan was dissolved. […] The absorbance of each well was measured using a plate reader at an OD of 540 nm with a reference of 660 nm. […]

[2] = system: human lung cancer cell line NCI-H460; assay: Cell growth inhibition assay (MTT), NCI-H460; format: cell-based; conditions: NCI-H460 cells, 72 hours, read-out: GI50 value (50% growth inhibitory concentration)
Procedure: as §1, §2, §3

[3] = Purity test and stability test (accelerated test, HPLC related substances); format: physicochemical; conditions: monohydrochloride
Procedure: Purity Test and Stability Test
• Condition 1: 40° C., humidity: 75% • Condition 2: 60° C. (without humidity control)
Samples under the aforementioned accelerated test conditions were measured by high performance liquid chromatography as described below.
An analyte for the accelerated test was dissolved in the sample-dissolved solution to prepare an approximately 0.5 g/L solution.
• Column: YMC-Pack Pro C18RS, 3.0 mm ID×150 mm, particle diameter: 3 μm • Column temperature: approximately 40° C. • Gradient conditions:
45 to 55 minutes, mobile phase A: 0/mobile phase B: 100 • Flow rate: 0.7 ml/min • Measurement range: 0 to 55 minutes • Detection wavelength: 240 nm • Amount of sample solution injected: 5 μl <Calculation> • 1) The sample solution was injected into the column, so as to obtain the peak area (A) of each related substance and the peak area (T) of compound (1). • 2) The sample-dissolved solution was injected into the column, so as to obtain the peak area (B) of each blank. • 3) The amount [%] of each related substance was calculated using the formula: The amount [%] of each related substance=100×(A−B)÷T <Measurement Results>

[4] = Accelerated condition 1: 40° C., humidity 75%, 2 weeks
[5] = Accelerated condition 1: 40° C., humidity 75%, 4 weeks
[6] = Accelerated condition 2: 60° C. (without humidity control), 2 weeks
[7] = Accelerated condition 2: 60° C. (without humidity control), 4 weeks
[8] = Purity test (Initial), before accelerated test

GI50 [1] [nM]	GI50 [2] [nM]	Impurity (rrt 0.43) amount [3, 4] [%]	Impurity: Total of unspecified [3, 4] [%]	Impurity (rrt 0.43) amount [3, 5] [%]	Impurity: Total of unspecified [3, 5] [%]	Impurity (rrt 0.43) amount [3, 6] [%]	Impurity: Total of unspecified [3, 6] [%]	Impurity (rrt 0.43) amount [3, 7] [%]	Impurity: Total of unspecified [3, 7] [%]	Impurity (rrt 0.43) amount [3, 8] [%]	Impurity: Total of unspecified [3, 8] [%]	SMILES
13	26	–	–	–	–	–	–	–	–	–	–	CNC(=O)CC1=Cc2nn(Cc3ncc(C)c(OC)c3Cl)c3nc(N)nc(c23)SC1 [Compound (1), 2-{4-amino-2-[(3-chloro-4-methoxy-5-methylpyridin-2-yl)methyl]-2,7-dihydro-6-thia-1,2,3,5-tetraazabenzo[cd]azulen-8-yl}-N-methylacetamide]
–	–	0.94	1.83	1.04	2.08	1.09	2.31	1.21	2.42	0.75	1.64	CNC(=O)CC1=Cc2nn(Cc3ncc(C)c(OC)c3Cl)c3nc(N)nc(c23)SC1.Cl [Example 4, 2-{4-Amino-2-[(3-chloro-4-methoxy-5-methylpyridin-2-yl)methyl]-2,7-dihydro-6-thia-1,2,3,5-tetraazabenzo[cd]azulen-8-yl}-N-methylacetamide monohydrochloride]
–	–	0.30	1.08	0.33	1.09	0.32	1.20	0.33	1.20	0.27	1.00	CNC(=O)CC1=Cc2nn(Cc3ncc(C)c(OC)c3Cl)c3nc(N)nc(c23)SC1.Cl [Example 12, 2-{4-Amino-2-[(3-chloro-4-methoxy-5-methylpyridin-2-yl)methyl]-2,7-dihydro-6-thia-1,2,3,5-tetraazabenzo[cd]azulen-8-yl}-N-methylacetamide monohydrochloride]
–	–	0.41	1.14	0.44	1.12	0.44	1.25	0.45	1.18	0.37	1.07	CNC(=O)CC1=Cc2nn(Cc3ncc(C)c(OC)c3Cl)c3nc(N)nc(c23)SC1.Cl [Example 28, 2-{4-Amino-2-[(3-chloro-4-methoxy-5-methylpyridin-2-yl)methyl]-2,7-dihydro-6-thia-1,2,3,5-tetraazabenzo[cd]azulen-8-yl}-N-methylacetamide monohydrochloride]

Reference: patent publication US8815880B2, “Crystal of tricyclic pyrazolopyrimidine derivative” (Daiichi Sankyo Company, Limited, priority 2010, dated 2014)
